How the values were obtained:
[1] = biological target: T1, FAK [pY397] in HCC70 cells (Homo sapiens, UniProt Q05397); test: FAK [pY397] ELISA in HCC70 cells; type: cell-based; conditions: HCC70, 1 h treatment, mean ± SEM (n = 3); read-out: IC50 FAK phosphorylation (pY397 ELISA)
T1 construct: endogenous in cells; host or cells: HCC70
Protocol: (§1) TNBC cells were seeded into 60 mm dishes at a density of 1 × 10^6 cells/dish in 5 mL of culture media. After 24 h, cells were treated with concentrations ranging from 1 nM to 10 μM of SJP1602 for 1 h, and cell lysates were prepared to detect phospho-FAK levels. The FAK [pY397] enzyme-linked immunosorbent assay was performed according to the manufacturer’s instructions. The absorbance at 450 nm was measured to quantify the results.

MDA-MB-231 cells [2] = test: Colony formation assay; type: cell-based, human; conditions: 1 μM or 2 μM, 11 days
Protocol: MDA-MB-231 cells were seeded at 2.5 × 10^2 cells/well in 12-well plates. FAK inhibitors (SJP1602, VS-6063, GSK2256098) were added 24 h post seeding without changing the media. After 7 days, the cells were replaced with fresh media containing 10% FBS and the same initial concentration of the FAK inhibitor. After 11 days, the cells were fixed with 4% PFA for 10 m at room temperature and stained with 0.5% crystal violet dissolved in 25% methanol for 20 min at room temperature. The cells were then washed with distilled water, dried, and images of the entire plate were obtained.

[3] = Cytotoxicity on normal cell line HEK293T; type: cell-based; conditions: human, HEK293T cells (normal cell line); read-out: Cytotoxicity on Normal Cell Lines IC50
[4] = Cytotoxicity on normal cell line WI38; type: cell-based; conditions: human, WI38 cells (normal cell line); read-out: Cytotoxicity on Normal Cell Lines IC50
[5] = Cytotoxicity on normal cell line CCD-18Co; type: cell-based; conditions: human, CCD-18Co cells (normal cell line); read-out: Cytotoxicity on Normal Cell Lines IC50
Insulin Receptor (InsR) = biological target: T2, Insulin Receptor (InsR) (Homo sapiens, UniProt P06213); test: ADP-Glo kinase assay InsR; type: biochemical; conditions: mean ± SEM (n = 3)
T2 construct: purchased Promega V3901
T2 sequence (P06213 28-1382): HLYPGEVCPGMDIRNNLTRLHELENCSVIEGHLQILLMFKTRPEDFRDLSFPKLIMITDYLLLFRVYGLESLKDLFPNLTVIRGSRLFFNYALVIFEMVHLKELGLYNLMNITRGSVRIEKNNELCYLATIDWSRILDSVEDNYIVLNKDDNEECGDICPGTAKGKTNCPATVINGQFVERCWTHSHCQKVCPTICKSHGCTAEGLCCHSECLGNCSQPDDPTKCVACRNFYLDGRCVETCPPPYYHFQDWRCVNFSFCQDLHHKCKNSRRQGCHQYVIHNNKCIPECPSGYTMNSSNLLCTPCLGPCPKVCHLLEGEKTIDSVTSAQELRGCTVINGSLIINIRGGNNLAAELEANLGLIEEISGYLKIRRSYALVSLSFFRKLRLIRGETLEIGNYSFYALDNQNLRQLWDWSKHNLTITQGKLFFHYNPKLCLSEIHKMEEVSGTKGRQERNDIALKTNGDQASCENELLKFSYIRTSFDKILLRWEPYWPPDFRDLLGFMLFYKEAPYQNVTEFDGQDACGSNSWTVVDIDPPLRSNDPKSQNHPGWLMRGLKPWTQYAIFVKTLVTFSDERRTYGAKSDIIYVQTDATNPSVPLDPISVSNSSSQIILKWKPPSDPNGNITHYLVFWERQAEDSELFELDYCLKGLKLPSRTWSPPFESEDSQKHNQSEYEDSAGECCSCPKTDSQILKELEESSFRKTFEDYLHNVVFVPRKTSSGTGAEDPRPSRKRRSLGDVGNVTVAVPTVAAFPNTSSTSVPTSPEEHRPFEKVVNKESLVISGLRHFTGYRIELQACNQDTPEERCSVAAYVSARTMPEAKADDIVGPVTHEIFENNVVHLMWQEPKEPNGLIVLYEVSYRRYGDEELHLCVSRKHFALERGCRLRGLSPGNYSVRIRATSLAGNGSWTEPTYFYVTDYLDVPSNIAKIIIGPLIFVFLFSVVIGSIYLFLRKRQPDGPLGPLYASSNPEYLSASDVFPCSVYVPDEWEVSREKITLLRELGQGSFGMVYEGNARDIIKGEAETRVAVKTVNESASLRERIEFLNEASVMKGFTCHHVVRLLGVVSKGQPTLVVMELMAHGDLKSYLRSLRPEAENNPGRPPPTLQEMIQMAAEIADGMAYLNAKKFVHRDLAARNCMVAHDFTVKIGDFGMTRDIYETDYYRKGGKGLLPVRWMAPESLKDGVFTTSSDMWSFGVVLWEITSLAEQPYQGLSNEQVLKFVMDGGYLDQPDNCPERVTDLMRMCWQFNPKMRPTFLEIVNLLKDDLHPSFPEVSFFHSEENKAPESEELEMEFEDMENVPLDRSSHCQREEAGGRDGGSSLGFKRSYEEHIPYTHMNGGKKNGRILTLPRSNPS
Protocol: (§2) The kinase assays were performed and quantified according to the manufacturer’s instructions using the ADP-Glo™ Kinase Assay Kit for FAK (Promega, V1971), PYK2 (Promega, V4083) and InsR (Promega, V3901). Each kinase reaction mixture was prepared to contain the compounds of interest. After thorough pipetting, 25 μL of the mixture was added to each well and incubated for 1 h at room temperature. Subsequently, 25 μL of ADP-Glo reagent was added, followed by a 40 m incubation at room temperature. Next, 50 μL of the kinase detection reagent was added, and the mixture was incubated for an additional 30 m at room temperature. Luminescence was measured using the Tecan Spark 10M (Integration time: 1 s) (Männedorf, Switzerland).

[6] = biological target: T3, FAK [pY397] in MDA-MB-453 cells (Homo sapiens, UniProt Q05397); test: FAK [pY397] ELISA in MDA-MB-453 cells; type: cell-based; conditions: MDA-MB-453, 1 h treatment, mean ± SEM (n = 3); read-out: IC50 FAK phosphorylation (pY397 ELISA)
T3 construct: endogenous in cells; host or cells: MDA-MB-453
T3 sequence (Q05397 whole entry): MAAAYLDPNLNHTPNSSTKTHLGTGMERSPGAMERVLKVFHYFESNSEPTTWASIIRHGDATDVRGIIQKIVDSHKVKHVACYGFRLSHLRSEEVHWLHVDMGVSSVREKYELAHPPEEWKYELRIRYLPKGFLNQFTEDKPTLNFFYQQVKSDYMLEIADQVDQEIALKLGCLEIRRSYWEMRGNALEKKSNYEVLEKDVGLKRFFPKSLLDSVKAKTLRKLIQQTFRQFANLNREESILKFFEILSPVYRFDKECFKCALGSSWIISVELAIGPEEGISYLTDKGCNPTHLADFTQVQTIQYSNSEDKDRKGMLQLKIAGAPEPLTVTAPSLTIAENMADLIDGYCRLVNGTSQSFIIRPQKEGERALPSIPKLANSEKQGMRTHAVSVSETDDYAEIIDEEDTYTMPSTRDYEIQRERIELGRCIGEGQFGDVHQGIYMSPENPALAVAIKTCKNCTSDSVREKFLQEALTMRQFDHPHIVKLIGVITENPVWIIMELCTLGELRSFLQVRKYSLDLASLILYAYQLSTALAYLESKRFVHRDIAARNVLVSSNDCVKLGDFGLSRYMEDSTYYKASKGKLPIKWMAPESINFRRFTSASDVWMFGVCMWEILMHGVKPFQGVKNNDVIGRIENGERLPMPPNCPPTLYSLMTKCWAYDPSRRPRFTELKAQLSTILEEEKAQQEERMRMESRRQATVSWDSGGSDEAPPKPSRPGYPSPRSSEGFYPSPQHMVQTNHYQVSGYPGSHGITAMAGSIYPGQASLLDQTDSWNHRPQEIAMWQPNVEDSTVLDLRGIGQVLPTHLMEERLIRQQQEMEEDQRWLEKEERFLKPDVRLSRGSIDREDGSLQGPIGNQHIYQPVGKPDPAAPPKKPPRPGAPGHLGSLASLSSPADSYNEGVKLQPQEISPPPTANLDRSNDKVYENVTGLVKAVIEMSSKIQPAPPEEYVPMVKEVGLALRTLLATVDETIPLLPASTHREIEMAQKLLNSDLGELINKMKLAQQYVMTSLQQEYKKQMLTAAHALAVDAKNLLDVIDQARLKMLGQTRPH
Protocol: as §1

[7] = Cytotoxicity on normal cell line FDF; type: cell-based; conditions: FDF cells (normal cell line); read-out: Cytotoxicity on Normal Cell Lines IC50
FAK = biological target: T4, FAK (Homo sapiens, UniProt Q05397); test: ADP-Glo kinase assay FAK; type: biochemical; conditions: mean ± SEM (n = 3)
T4 construct: purchased Promega V1971
T4 sequence (Q05397 whole entry): as above
Protocol: as §2

[8] = Cytotoxicity on normal cell line Fa2N4; type: cell-based; conditions: human, Fa2N4 cells (normal cell line); read-out: Cytotoxicity on Normal Cell Lines IC50
[9] = Toxicity and body weight in xenograft mice; conditions: mouse xenograft experiments, 20-80 mg/kg po daily
Protocol: Upon establishment of tumors, with an average tumor volume reaching approximately 100 mm^3, mice were grouped and subjected to daily oral dosing. […] The duration of drug administration was defined for 2 weeks based on the growth rate of the vehicle group of each xenografted tumor. The tumor volume was measured three times a week for potency measurement, and the body weight of mice was also measured three times a week for toxicity evaluation in vivo.

PYK2 = biological target: T5, PYK2 (Homo sapiens, UniProt Q14289); test: ADP-Glo kinase assay PYK2; type: biochemical; conditions: mean ± SEM (n = 3)
T5 construct: purchased Promega V4083
T5 sequence (Q14289 whole entry): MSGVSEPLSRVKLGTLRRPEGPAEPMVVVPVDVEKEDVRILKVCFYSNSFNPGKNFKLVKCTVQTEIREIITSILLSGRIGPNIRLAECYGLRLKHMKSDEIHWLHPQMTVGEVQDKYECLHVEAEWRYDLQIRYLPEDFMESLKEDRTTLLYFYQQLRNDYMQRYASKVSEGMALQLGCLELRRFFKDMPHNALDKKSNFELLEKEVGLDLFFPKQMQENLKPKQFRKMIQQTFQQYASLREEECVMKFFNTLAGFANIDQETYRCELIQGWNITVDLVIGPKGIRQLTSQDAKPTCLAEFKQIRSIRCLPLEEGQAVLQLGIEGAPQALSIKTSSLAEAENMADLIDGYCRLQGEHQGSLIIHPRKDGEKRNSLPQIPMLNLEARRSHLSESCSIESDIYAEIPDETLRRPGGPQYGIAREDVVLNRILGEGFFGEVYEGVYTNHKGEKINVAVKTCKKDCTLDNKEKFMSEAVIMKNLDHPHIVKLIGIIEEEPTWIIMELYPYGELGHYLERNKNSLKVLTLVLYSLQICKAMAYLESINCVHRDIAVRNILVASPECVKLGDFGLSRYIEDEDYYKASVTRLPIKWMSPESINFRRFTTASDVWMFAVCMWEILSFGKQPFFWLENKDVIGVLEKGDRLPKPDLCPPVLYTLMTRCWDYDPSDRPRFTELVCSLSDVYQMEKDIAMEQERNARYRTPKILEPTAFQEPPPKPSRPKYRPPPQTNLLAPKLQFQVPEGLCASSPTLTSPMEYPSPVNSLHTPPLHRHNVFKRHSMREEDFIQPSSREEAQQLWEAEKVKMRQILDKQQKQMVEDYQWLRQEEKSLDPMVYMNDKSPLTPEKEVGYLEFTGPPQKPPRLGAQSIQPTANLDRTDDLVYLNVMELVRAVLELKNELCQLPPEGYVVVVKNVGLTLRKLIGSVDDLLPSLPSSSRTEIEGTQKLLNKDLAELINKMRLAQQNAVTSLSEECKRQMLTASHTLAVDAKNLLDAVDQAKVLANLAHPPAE
Protocol: as §2

[10] = tested on: MDA-MB-231, 4T1, and Hs578T cells; test: 3D cell invasion assay; type: cell-based; conditions: 1 µM, 72 h, compared to VS-6063 and GSK 2256098
Protocol: Cells were added to an ultra-low 96-well round-bottom plate at a density of 5 × 10^3 cells/well and cultured for 3 days to form spheroids. The medium was removed, and a mixture of neutralized Type I Collagen and Matrigel was added to the wells. After 1 h of incubation, compound concentrations (2×) in 100 μL of solution were added per well. The plate was then incubated for 72 h. Relative invasion was quantified based on the following formula using the microscope and imaging software ImageJ (Version 2.1.0/1.54e, National Institutes of Health, Bethesda, MD, USA):Relative invasion = (total area of compound treated group − spheroid area of compound treated group/(total area of control − spheroid area of control)(1)

MDA-MB-231 cells [11] = test: 2D cell invasion assay (Boyden chamber, Matrigel); type: cell-based, human; conditions: 5 μM, 48 h, Matrigel-coated Boyden chamber
Protocol: Cell invasion capacity was analyzed using the Boyden chamber assay. The 24-well Boyden chambers with Matrigel-coated filters (8 μm pore size) were obtained from Becton-Dickinson (San Diego, CA, USA). Cells treated with vehicle or FAK inhibitors (SJP1602, VS-6063, GSK2256098) at a concentration of 5 μM were resuspended in serum-free media and 5 × 10^5 cells were added to the Matrigel-coated upper compartment of the invasion chambers. Fresh culture medium with 5% FBS was added to the lower compartment. After 48 h, cells on the upper side of the filter were removed using cotton swabs. The underside of the filter was fixed in 100% methanol, washed in PBS, and stained using crystal violet. Cells that invaded the Matrigel were analyzed using a microscope (Nikon, TE2000). Image analysis was performed using the color analysis function in Adobe Photoshop 2021 (Version 22.4.2, Adobe, Adobe (San Jose, CA, USA)). Quantitative data were obtained from color measurement records in Adobe Photoshop 2021.

T1 sequence (Q05397 whole entry): as the sequence (Q05397 whole entry) above

**Q.** Which IC50 [1] does the source give for CNC(=O)c1cccc(C)c1Nc1nc(Nc2ccc(N3CCN(C4C5CC6CC4CC(O)(C6)C5)CC3)cc2OC)ncc1C(F)(F)F (centres unmarked) [SJP1602, 2-((2-((4-(4-((2s,5r)-5-hydroxyadamantan-2-yl)piperazin-1-yl)-2-methoxyphenyl)amino)-5-(trifluoromethyl)pyrimidin-4-yl)amino)-N,3-dimethylbenzamide] here?
**A.** 83 ± 17 nM

**Q.** And the “formation of MDA-MB-231 colonies” value (MDA-MB-231 cells [2])?
**A.** dose-dependent decrease

**Q.** And the IC50 [3]?
**A.** > 10000 nM

**Q.** What about the IC50 [4] of the same compound?
**A.** 7280 nM

**Q.** And the IC50 [5]?
**A.** > 10000 nM

**Q.** And the IC50 (Insulin Receptor (InsR))?
**A.** 1170 ± 60.1 nM

**Q.** What about the IC50 [6] of the same compound?
**A.** 43 ± 16 nM

**Q.** What about the IC50 [7] of the same compound?
**A.** > 10000 nM

**Q.** What about the IC50 (FAK) of the same compound?
**A.** 3.7 ± 0.007 nM

**Q.** And the IC50 [8]?
**A.** 9620 nM

**Q.** What about the “signs of toxicity or weight loss in xenograft mice” value [9] of the same compound?
**A.** no signs of toxicity or significant weight loss

**Q.** And the IC50 (PYK2)?
**A.** 24.7 ± 0.919 nM

**Q.** And the “TNBC cell invasion (3D)” value [10]?
**A.** significantly inhibits

**Q.** And the “invasion of MDA-MB-231 cells” value (MDA-MB-231 cells [11])?
**A.** markedly inhibited

Reference: PMC10528299, “Targeting FAK/PYK2 with SJP1602 for Anti-Tumor Activity in Triple-Negative Breast Cancer” (Current Issues in Molecular Biology, 2023)
